{"source": "patent US20030135033A1", "about": "“Compounds and methods for the identification and/ or validation of a target” (priority 2002, published 2003)", "type_in_all_cases": "cell-based, human", "key": {"PTEN mRNA [1]": {"system": "PTEN mRNA", "test": "Immunoblot of phosphorylated Akt after GeneBloc transfection of PTEN negative PC-3 cells", "details": "PC-3 cells (PTEN negative), 30 nM, 48 h", "method": "More particularly, HeLa cells (380.000 cells/plate) and PC-3 cells (450.000 cells/plate) were transfected in parallel on 10 cm plates. Each cell line was treated for 48 h in duplicate samples with 30 nM of PTEN GeneBloc 53 or GBC. The cell extracts were analyzed by immunoblotting for the relative amounts of p110, PTEN and phosphorylated Akt (P*-Akt) as indicated on the right. The band which migrates just above the PTEN signal was caused by unspecific reaction of the secondary antibody. […]\nCells were washed twice with cold phosphate-buffered saline and lysed at 4° C. in lysis buffer containing 20 mM Tris (pH 7.5), 137 mM NaCl, 15% (vol/vol) glycerol, 1% (vol/vol) Nonidet P-40 (NP-40), 2 mM phenylmethylsulfonyl fluoride, […], 20 mM leupeptin, 2 mM benzamidine, 1 mM sodium vanadate, 25 mM […]-glycerol phosphate, 50 mM NaF and 10 mM NaPPi. Lysates were cleared by centrifugation at 14,000× g for 5 minutes and aliquots of the lysates were analyzed for protein expression by Western-blotting: Samples were separated by SDS-PAGE and transferred to nitrocellulose-filters (Schleicher & Schuell). […] Bound antibody was detected using anti-mouse- or anti-rabbit-conjugated horse radish peroxidase (Transduction Laboratories, BD) in TBST, washed, and developed using the SuperSignal West Dura (Pierce) or ECL (Amersham) chemoluminescence substrates. […]"}, "Hela cells": {"system": "Hela cells", "test": "Cell growth on matrigel", "details": "48 h transfection, then 48 to 72 h on matrigel, versus control GeneBloc", "from_the_text": "More particularly, a schematic pathway with PTEN inhibiting PI-3K activity is shown which would normally phosphorylate Akt thus leading to proliferation, survival and migration of HeLa cells as a model system for PTEN +/+ cells. FIG. 9 B presents the Western immunoblot analysis of an experiment studying the influence of PTEN specific antisense oligonucleotide or a control antisense nucleotide designated as mismatch GeneBloc™. PTEN is only present in the control sample, but is absent when PTEN-specific antisense oligonucleotides are used. The successful knockdown of PTEN causes phosphorylation of Akt, indicative of induction of the signalling pathway. […] Growth on matrigel is used as a surrogate in vitro assay for metastatic or invasive cell growth. […]\nLoss of PTEN function has been correlated with an increased metastatic growth potential in late stage human cancers (Cantley, L. C. and Neel, B. G. (1999). New insights into tumor suppression: PTEN suppresses tumor formation by restraining the phosphoinositide 3-kinase/AKT pathway. Proc Natl Acad Sci U S A 96, 4240-4245; Ali, I. U. (2000). Gatekeeper for endometrium: the PTEN tumor suppressor gene. J Natl Cancer Inst 92, 861-863). […] HeLa cells expressing an inducible version of a constitutively active PI 3-kinase, p110* […] were analyzed in parallel. […]"}, "PTEN mRNA [2]": {"system": "PTEN mRNA", "test": "PTEN knock down by RNAi versus antisense oligonucleotide (Western blot, dose response)", "method": "The cells were infected using any of these two constructs according to the methods described herein above.\nThe result of this experiment is depicted in FIG. 18. […] As a positive control an antisense oligonucleotide specific for PTEN referred to as GeneBloc 53 (disclosed above) was also applied to the respective expression system at different concentrations (60 nM, 15 nM, 3.75 nM and 0.93 nM).\nTo further illustrate the impact of RNAi which is specific for PTEN, on the ratio of PTEN to p110 a dose response was generated which is shown in FIG. 19. From FIG. 19 it may be taken that even at the lowest concentration, i. e. 0.03 nM, the PTEN specific RNAi still reduces the ratio of PTEN to p 110 to about one third of the respective control. […] This is in clear contrast to RNAi which is not specific for PTEN."}}, "data": [{"substance": "ucuccuuTTGTTTCTGcuaacga (UCUCCUUTTGTTTCTGCUAACGA; chemistry not fully specified) [PTEN 53, third generation antisense oligonucleotide (GeneBloc) against PTEN]", "values": [{"measurement": "phosphorylated Akt (P*-Akt) (immunoblot)", "setting": "PTEN mRNA [1]", "value": "generate phosphorylated Akt irrespective"}, {"measurement": "phosphorylated Akt (P*-Akt) (immunoblot)", "setting": "PTEN mRNA [1]; listed as PTEN GeneBloc 53", "value": "had no effect"}, {"measurement": "growth on matrigel", "setting": "Hela cells", "value": "increased potential to form network structures on matrigel and grew better"}, {"measurement": "concentration required compared to RNAi", "setting": "PTEN mRNA [2]; PTEN knockdown, Western blot", "value": "requires higher concentrations compared to RNAi"}, {"measurement": "PTEN expression (Western blot)", "setting": "PTEN mRNA [2]; antisense oligonucleotide at 60 nM, 15 nM, 3.75 nM and 0.93 nM", "value": "allows for a specific knockdown of PTEN"}]}]}
